{
  "source": "patent US9952300B2",
  "about": "“Dynamic contrast enhanced MRI method and agents for the assessment of the macromolecular transport within pathologic tissues” (BRACCO IMAGING S.P.A., priority 2012, dated 2018)",
  "molecules": {"B1": {"name": "SMANCS (conjugate, UniProt P0A3R9 35-147, looked up)", "Neocarzinostatin": "AAPTATVTPSSGLSDGTVVKVAGAGLQAGTAYDVGQCAWVDTGVLACNPADFSSVTADANGSASTSLTVRRSFEGFLFDGTRWGTVDCTTAACQVGLSDAAGNGPEGVAISFN", "modifications": "styrene-maleic acid copolymer conjugate"}},
  "key": {"Human Serum Albumin": {"biological_target": "Human Serum Albumin (Homo sapiens, UniProt P02768)", "sequence (P02768 25-609)": "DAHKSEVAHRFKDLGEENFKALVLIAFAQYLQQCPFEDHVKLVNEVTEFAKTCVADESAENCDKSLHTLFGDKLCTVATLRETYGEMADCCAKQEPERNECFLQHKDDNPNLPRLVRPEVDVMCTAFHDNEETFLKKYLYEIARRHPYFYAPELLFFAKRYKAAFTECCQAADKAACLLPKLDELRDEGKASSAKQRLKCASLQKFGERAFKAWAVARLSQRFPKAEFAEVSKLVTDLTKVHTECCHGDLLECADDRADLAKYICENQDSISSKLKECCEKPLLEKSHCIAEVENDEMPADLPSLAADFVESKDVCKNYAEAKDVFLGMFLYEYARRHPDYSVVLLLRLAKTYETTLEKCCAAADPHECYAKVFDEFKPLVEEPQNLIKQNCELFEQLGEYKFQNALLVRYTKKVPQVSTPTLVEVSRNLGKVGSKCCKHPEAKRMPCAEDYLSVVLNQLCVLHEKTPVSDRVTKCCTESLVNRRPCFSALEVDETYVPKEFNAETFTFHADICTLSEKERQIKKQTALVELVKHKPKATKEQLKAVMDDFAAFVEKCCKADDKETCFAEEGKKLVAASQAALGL", "conditions": "literature; cited from earlier work"}, "[1]": {"system": "PC-3 human prostate adenocarcinoma tumor", "assay": "DCE-MRI of contrast agent kinetics in PC-3 tumors of Axitinib- or vehicle-treated mice (Example 3)", "format": "in vivo, NCR athymic nude mice", "conditions": "contrast agent 100 μmol/kg i.v., one value per animal", "text": "The comparative test has been performed using NCR athymic nude mice implanted with PC-3 cells (a human prostate cancer line) and treated with Axitinib®, a VEGFRs inhibitor, (to modulate the tumor vascular permeability) by a protocol which timing is for instance schematized in FIG. 1. Scope of the test was to compare the image-based analysis of the albumin distribution in a human tumor model as extracted from the analysis of a time-serie of MRI images (with spatial resolution of around 110 μm) acquired with the method of the invention after injection of B22956/1 as contrast agent, and the distribution of FITC-BSA (Fluorescent isothiocyanate Bovine Serum Albumin) albumin inside and outside vessels histologically determined from fluorescent microscopy images on a scale of microns.\nIn particular, the trans-endothelial permeability (K^Trans) and the fractional plasma volume (fPV) were calculated from dynamic MR data by application of a bi-compartmental pharmacokinetic model, while the Initial Area Under the Curve (IAUCT) was calculated in several time windows, typically comprised between the contrast agent administration and the end of the MRI acquisition. The macromolecular penetration in tumors was, then, probed by fluorescently labelled Bovine Serum Albumin administered via tail vein after the last MRI session. Microscopic images were used to quantify the percentage of area stained by fluorescent albumin in the tumor, as a measure of the blood vessel density, using an automatic thresholding method. The albumin extravasation in the tumor extravascular space was assessed based on the fluorescence found out of the blood vessels from histological samples taken from both of tumor rim and core, for instance as schematized in FIG. 2. In particular, the albumin florescence was averaged over all pixels at a given distance from the nearest vessel and stored as a function of distance from the vessels walls, by use of an optimized procedure, for instance schematized in FIG. 3, providing both a quantification of the availability of the albumin in the extravascular space of the concerned tumor, namely the amount of the extravasated FITC-Albumin, and the decay of its concentration over the distance x from a nearest vessel, or, in other words, its actual distribution and dilution within the extracellular spaces (for instance as schematized in FIG. 4).\nHuman prostate adenocarcinoma cells (PC-3) were supplied by ATCC (American Type Culture Collection) and grown in Hams F-12 medium supplemented with 10% foetal bovine serum, 2 mM glutamine, 100 IU/mL penicillin and 100 μg/mL streptomycin (all from Lonza, Verviers, Belgium). […] Tumour development was followed by palpation and measured by calliper every 2-3 days until the end of the experiment. […]"}, "tumor tissues": {"system": "tumor tissues", "conditions": "literature (Maeda et al.); cited from earlier work"}},
  "note": "Several values for one entry are separate records, joined by “and”; a condition that tells them apart may be missing. Equal entries are not always repeated.",
  "data": [
    {"molecule": "O=C([O-])CN(CCN(CC(=O)[O-])C[C@H](COP(=O)([O-])OC1CCC(c2ccccc2)(c2ccccc2)CC1)N(CC(=O)[O-])CC(=O)[O-])CC(=O)[O-].[Gd+3].[H+].[H+].[H+]", "note": "[Gadofosveset, reference compound]", "values": [
      {"measurement": "non-covalent binding with Human Serum Albumin", "setting": "Human Serum Albumin", "result": "about 90%"}
    ]},
    {"molecule": "CNC[C@H](O)[C@@H](O)[C@H](O)[C@H](O)CO.CNC[C@H](O)[C@@H](O)[C@H](O)[C@H](O)CO.O=C([O-])CN(CCN(CC(=O)[O-])CC(=O)O)CCN(CC(=O)O)C(COCc1ccccc1)C(=O)[O-].[Gd+3]", "note": "(stereo not shown) [MultiHance, reference compound]", "values": [
      {"measurement": "kTrans (Transfer Constant)", "setting": "[1]; tumor core", "result": "3.63 mL\\(min × g) × 100 and 1.02 mL\\(min × g) × 100 and 2.86 mL\\(min × g) × 100 and 3.57 mL\\(min × g) × 100 and 2.54 mL\\(min × g) × 100 and 1.53 mL\\(min × g) × 100 and 0.82 mL\\(min × g) × 100 and 3.15 mL\\(min × g) × 100 and 4.46 mL\\(min × g) × 100 and 1.08 mL\\(min × g) × 100 and 1.63 mL\\(min × g) × 100 and 3.19 mL\\(min × g) × 100 and 2.6 mL\\(min × g) × 100 and 4.07 mL\\(min × g) × 100 and 1.06 mL\\(min × g) × 100"},
      {"measurement": "kTrans (Transfer Constant)", "setting": "[1]; tumor rim", "result": "8.14 mL\\(min × g) × 100 and 3.59 mL\\(min × g) × 100 and 3.81 mL\\(min × g) × 100 and 4.51 mL\\(min × g) × 100 and 4.22 mL\\(min × g) × 100 and 4.44 mL\\(min × g) × 100 and 3.23 mL\\(min × g) × 100 and 4.78 mL\\(min × g) × 100 and 6.14 mL\\(min × g) × 100 and 1.74 mL\\(min × g) × 100 and 5.23 mL\\(min × g) × 100 (2×) and 5.82 mL\\(min × g) × 100 and 3.76 mL\\(min × g) × 100 and 2.88 mL\\(min × g) × 100"}
    ]},
    {"molecule": "B1", "values": [
      {"measurement": "spontaneous accumulation within tumor tissues versus normal tissues and organs", "setting": "tumor tissues", "result": "up to 200 times"}
    ]}
  ]
}
